Laboratory results: US20070092503A1, “Human alkaline sphingomyelinase and use thereof” (priority 2003, published 2007)

Tests used:
human Alk-Smase [1] = target: T1, human Alk-Smase (Homo sapiens, UniProt Q6UWV6); assay: Alk-Smase activity in the presence of metal ions, detergents, bile salts, glutathione; type: biochemical
T1 construct: Human Alk-Smase has now been purified from small intestinal content; from tissue; host or cells: human small intestinal (ileostomy) content
T1 sequence (Q6UWV6 22-458): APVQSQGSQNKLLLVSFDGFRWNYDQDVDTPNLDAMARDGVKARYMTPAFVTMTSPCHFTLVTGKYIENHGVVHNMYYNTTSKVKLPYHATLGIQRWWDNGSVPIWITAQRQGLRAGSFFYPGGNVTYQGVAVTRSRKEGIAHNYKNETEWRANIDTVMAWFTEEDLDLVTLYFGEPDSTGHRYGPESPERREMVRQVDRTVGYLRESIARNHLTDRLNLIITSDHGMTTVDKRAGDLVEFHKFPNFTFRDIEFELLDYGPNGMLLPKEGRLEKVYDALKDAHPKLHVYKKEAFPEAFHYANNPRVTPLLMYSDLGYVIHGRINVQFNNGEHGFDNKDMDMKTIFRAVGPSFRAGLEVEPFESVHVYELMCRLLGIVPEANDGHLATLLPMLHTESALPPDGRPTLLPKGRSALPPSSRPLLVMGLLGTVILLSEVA
Procedure: As bile salts are important factors for lipid digestion, the effects of different bile salts on human Alk-Smase were investigated. […] The activities were determined in the presence of different concentrations of bile salts.

bacterial neutral Smase = conditions: reduced form
human Alk-Smase [2] = target: T1, human Alk-Smase; assay: Alk-Smase activity in the presence of metal ions, detergents, bile salts, glutathione; type: biochemical; remark: listed apart in the source
[3] = system: HT29 human colon cancer cells; assay: Proliferation of HT29 colon cancer cells, WST reagent; type: cell-based; conditions: for effect on proliferation / cell growth of HT29 cells: different doses, 18 h, WST reagent; for effect on DNA synthesis of HT-29 cells: enzyme added to cells in culture
Procedure: HT29 human colon cancer cells were incubated in RMPI-1640 medium with L-glutamine, containing antibiotics and 10% (v/v) heat inactivated fetal calf serum. At the exponential growth phase, the cells were incubated with purified rat Alk-Smase at different doses for 18 h. The cell proliferation rates were measured by WST reagent. Results are Mean± SD of three individual duplicate experiments.
Experimental conditions for the antiproliferative inhibition were that HT 29 cells were incubated with rat Alk-Smase at different doses for 18 h. The cell proliferation rates were measured by WST reagent.
HT29 human colon cancer cells were incubated in RMPI-1640 medium with L-glutamine containing antibiotics and 10% (v/v) heat inactivated fetal calf serum. At the exponential growth phase, the cells were incubated with purified rat Alk-Smase at different doses for 18 h. The cell proliferation rates were measured by WST reagent. Results are Mean±SD of three individual duplicate experiments.

Cos-7 cells = assay: Alk-Smase activity of transfected cells (cell lysate and medium); type: cell-based
Procedure: Cos 7 cells are transfected with either the wild type of Alk-Smase cDNA (sequence 21-1397 of ID No 5, reading frame) which encodes Seq ID No 4, or transfected with the Alk-Smase cDNA sequence from 21-1285 (C-truncated), which encodes a 415 amino acid sequence (Seq ID No 6). After transfection, the Alk-Smase activity in the medium and in the cell lysate was determined.
pCMV-sports6-Smase is transfected into mammalian Cos-7 cells. To transfect the cells with pCMV-sports6-Smase 4×10^5 Cos-7 cells are seeded in a 25 cm^2 flask in 4 ml of Dulbecco's modified Eagle's medium with 10% heat inactivated fetal calf serum and 2 mM Glutamine.
The cells are incubated until 90% confluent.
Cells are then transfected with 5 microgram pCMV-sports6-Smase and 16 microgram lipofectamine 2000™ in each flask followed by incubation for 48 h.
Untransfected cells are exposed to lipofectamine and treated the same as above.
At the end of the incubation, medium is collected and cells are lysed by a 50 mM Tris-HCl buffer containing 1 mM PMSF, 2 mM EDTA, 0.5 mM Dtt, 10 microgram/ml leupeptin, 10 microgram/ml aprotinine and 10 mM TC.
Cells are kept on ice, e.g., for 10 minutes, and then sonicated for 10 sec.
After centrifugation at 12000 g for 10 minutes at 4° C., human Alk-Smase activity and protein concentrations were determined.
Cos-7 cells transfected with a mock-vector is used as a control.

[4] = Characterisation of Alk-Smase: sphingomyelin hydrolysis (pH dependence, hydrolytic capacity); conditions: for hydrolytic capacity (Vmax, Lineweaver-Burk plot): sphingomyelin hydrolysed: by 1 mg of the enzyme in one hour
Procedure: To distinguish whether the enzyme was different from the Mg dependent neutral Smase, activity at pH 7.5 in the presence of 4 mM Mg2+ in comparison wit pH 8.5 in the presence of 2 mM EDTA was assayed.

[5] = Lysophospholipase test with 14C-palmitoyl labelled lysophosphatidylcholine, TLC separation; type: biochemical
Procedure: At present the most intriguing functional similarity between Alk-Smase and NPP is the earlier observation that NPP2 has lysophospholipase D activity (M Umezo-Gozo et al J Cell Biol 2002; 158:227-33). To determine whether Alk-Smase also has lysophospholipase D activity, a trace amount of ^14C-palmitoyl labelled 1palmitoyl-lysosphosphatidylcholine was incubated with Alk-Smase using the optimal incubation conditions previously described (R D Duan and Å Nilsson Methods Enzymol 2000; 311:276-86). Lipids were then extracted according to known methods (Bligh and Dyer J Biochem Physiol 1959; 37:911-917), and separated on silica gel G plates that were developed in chloroform:methanol:water:acetic acid 25:20:0.3:3. The silica gel separates lysophosphatidylcholine and lysophosphatidic acid that are formed if there is a lysophospholipase D and monoglyceride formed by lysophospholipase C. […] It is therefore further disclosed herein that Alk-Smase may also influence cellular functions by removing lysophosphatidylcholine which can then not be converted to lysophosphatidic acid. Lysophosphatidic acid is a metabolite that stimulates growth of colon tumour cells. Our earlier studies have shown that Alk-Smase is not a general phosphlipase C since it has low activity against phosphatidylcholine (RD Duan, A Nilsson Methods Enzymol 2000; 311:276-86).

**Q.** Which “reduction of Alk-Smase activity” value (human Alk-Smase [1]; 7.5 mM glutathione, reduced form) does the source give for N[C@@H](CCC(=O)N[C@@H](CS)C(=O)NCC(=O)O)C(=O)O [glutathione] here?
**A.** 1%

**Q.** And the “effect on Alk-Smase activity (in words)” value (human Alk-Smase [1]; reduced form of glutathione)?
**A.** only slightly reduced

**Q.** What about the “reduction of neutral Smase activity” value (bacterial neutral Smase; 7.5 mM glutathione) of the same molecule?
**A.** 98%

**Q.** What about the “concentration above which neutral Smase activity is sharply abolished” value (bacterial neutral Smase) of the same molecule?
**A.** higher than 5 mM

**Q.** Which “maximal stimulating effect of bile salt on human Alk-Smase” value (human Alk-Smase [1]; maximum at the CMC of each bile salt) does the source give for C[C@H](CCC(=O)NCCS(=O)(=O)O)[C@H]1CC[C@H]2[C@@H]3[C@H](O)C[C@@H]4C[C@H](O)CC[C@]4(C)[C@H]3CC[C@]12C [TCDC, taurochenodeoxycholate] here?
**A.** far more effective than other bile salts

**Q.** With O=C(O)CN(CCN(CC(=O)O)CC(=O)O)CC(=O)O [EDTA] as the molecule, how does the “inhibition of Alk-Smase by EDTA” value (human Alk-Smase [1]) read?
**A.** not inhibited

**Q.** And the “reversal of the Zn2+ inhibition of Alk-Smase” value (human Alk-Smase [1]; 2 mM EDTA)?
**A.** Most of the inhibitory effect of Zn2+ was reversed

**Q.** Which “effect of increasing concentrations of divalent cation on Alk-Smase activity” value (human Alk-Smase [2]) does the source give for [Mg+2] [Mg] here?
**A.** slightly increased

**Q.** With [Zn+2] [Zn2^+] as the molecule, how does the IC50 (human Alk-Smase [1]; read-out: concentration giving 50% inhibition of Alk-Smase activity) read?
**A.** 15 µM

**Q.** With [Ca+2] [Ca2^+] as the molecule, how does the “effect of increasing concentrations of divalent cation on Alk-Smase activity” value (human Alk-Smase [2]) read?
**A.** slightly increased

**Q.** For Triton X 100, which “effect on human Alk-Smase activity” value (human Alk-Smase [1]; in the presence or absence of TC (10 mM)) is on record?
**A.** strongly inhibits

**Q.** With C[C@H](CCC(=O)NCCC[N+](C)(C)CCCS(=O)(=O)[O-])[C@H]1CC[C@H]2[C@@H]3[C@H](O)C[C@@H]4C[C@H](O)CC[C@]4(C)[C@H]3C[C@H](O)[C@]12C [CHAPS] as the molecule, how does the “effect on TC stimulation of Alk-Smase” value (human Alk-Smase [1]) read?
**A.** blocked the stimulatory effect of TC

**Q.** And the “effect on Alk-Smase activity” value (human Alk-Smase [1]; very low concentration (0.025 mM))?
**A.** only slightly increased the activity

B1: rat Alk-Smase: purified rat intestinal alkaline sphingomyelinase (protein, UniProt Q5EZ72 22-439, looked up)
Ectonucleotide …: GPVQRQQQHKLLLVSFDGFRWNYDQDVETPNLDSMAQEGVKARYMTPAFVTMTSPCHFTLVTGKYIENHGVVHNMFYNTTNKVRLPYHATLGIQRWWDNGSIPIWITAQRQGLKTGSFFYPGGNVTYQGEAVTMSRKEGVLHNYKNETEWRANVDTVMKWFTEEDVSLVTLYFGEPDSTGHKYGPESQERKDMVKQVDRTVGYLRDSIKRHHLTDSLNLIITSDHGMTTVNKKASDLVEFHKFPNFTFRDIEFELLDYGPNGMLIPKEGMLEKVYSVLKDAHPRLHVYKKEDFPKTFHYANNPRITSLLMYSDLGYVIHGRVNVQFNSGEHGFDNQDMDMKTIFRAVGPSFKAGLEVEPFESVHVYELMCQLLGIVPEPNDGHPGVLQPMLRSGSPLSRQHHLVVVLMGILTGLAKVV
**Q.** Which “effect on proliferation / cell growth of HT29 cells” value [3] does the source give for B1 here?
**A.** dose-dependently inhibited cell growth

**Q.** And the “effect on proliferation / cell growth of HT29 cells” value ([3]; listed as rat alkaline Smase)?
**A.** inhibit proliferation

**Q.** And the “effect on DNA synthesis of HT-29 cells” value [3]?
**A.** decreased DNA synthesis

B2: amino acid 1-415: C-truncated human Alk-Smase, 415 amino acid sequence encoded by cDNA 21-1285 (protein, listed as Homo sapiens)
chain: MRGPAVLLTVALATLLAPGAGAPVQSQGSQNKLLLVSFDGFRWNYDQDVDTPNLDAMARDGVKARYMTPAFVTMTSPCHFTLVTGKYIENHGVVHNMYYNTTSKVKLPYHATLGIQRWWDNGSVPIWITAQRQGLRAGSFFYPGGNVTYQGVAVTRSRKEGIAHNYKNETEWRANIDTVMAWFTEEDLDLVTLYFGEPDSTGHRYGPESPERREMVRQVDRTVGYLRESIARNHLTDRLNLIITSDHGMTTVDKRAGDLVEFHKFPNFTFRDIEFELLDYGPNGMLLPKEGRLEKVYDALKDAHPKLHVYKKEAFPEAFHYANNPRVTPLLMYSDLGYVIHGRINVQFNNGEHGFDNKDMDMKTIFRAVGPSFRAGLEVEPFESVHVYELMCRLLGIVPEANDGHLATLLPMLHT
**Q.** Which “Alk-Smase activity produced, C-truncated versus full sequence cDNA” value (Cos-7 cells; transfected cells, FIG. 13) does the source give for B2 here?
**A.** higher

B3: human Alk-Smase: human intestinal alkaline sphingomyelinase, 458 amino acid protein purified from small intestinal content (protein, listed as Homo sapiens)
chain: MRGPAVLLTVALATLLAPGAGAPVQSQGSQNKLLLVSFDGFRWNYDQDVDTPNLDAMARDGVKARYMTPAFVTMTSPCHFTLVTGKYIENHGVVHNMYYNTTSKVKLPYHATLGIQRWWDNGSVPIWITAQRQGLRAGSFFYPGGNVTYQGVAVTRSRKEGIAHNYKNETEWRANIDTVMAWFTEEDLDLVTLYFGEPDSTGHRYGPESPERREMVRQVDRTVGYLRESIARNHLTDRLNLIITSDHGMTTVDKRAGDLVEFHKFPNFTFRDIEFELLDYGPNGMLLPKEGRLEKVYDALKDAHPKLHVYKKEAFPEAFHYANNPRVTPLLMYSDLGYVIHGRINVQFNNGEHGFDNKDMDMKTIFRAVGPSFRAGLEVEPFESVHVYELMCRLLGIVPEANDGHLATLLPMLHTESALPPDALLVADGPCLPSLSQAKGCMPLSPAAPTPAWLLWCW
**Q.** What does the source list for B3?
**A.** activity at pH 8.5 with 2 mM EDTA compared with pH 7.5 with 4 mM Mg2+ [4]: significantly higher; hydrolytic capacity (Vmax, Lineweaver-Burk plot): sphingomyelin hydrolysed [4]: 11 mmol; hydrolytic capacity (Vmax, Lineweaver-Burk plot): sphingomyelin hydrolysed ([4]; listed as Alk-Smase): about 11 mmole; activity at pH 7.5 relative to maximal activity ([4]; pH 7.5 versus pH 8.5): about 68%; increase of human Alk-Smase activity in the medium (Cos-7 cells; Cos-7 cells transfected with pCMV-sports6-Smase, 48 h): 5 fold; formation of lysophosphatidic acid (lysophospholipase D activity) [5]: not demonstrated; lysophosphatidylcholine degraded to 14C-monoglyceride ([5]; in one hour, optimal incubation conditions): 80%; effect on proliferation / cell growth of HT29 cells [3]: inhibit proliferation; effect on DNA synthesis of HT-29 cells [3]: decreased DNA synthesis
